This assay deals with HSV-2 virus (MS strain). In words: HSV-2 Cellomics Assay (immunofluorescence of HSV protein gD). In kind it is cell-based. How it is done: Compounds were tested for their ability to inhibit HSV-2 replication by monitoring the expression of the HSV protein gD using a high-throughput immunofluorescence-based assay. 10-dose, 3-fold serial dilutions of compounds were prepared at starting concentrations of 0.2 or 2 mM in 100% DMSO. 250 nl of compounds were spotted in quadruplicates onto black collagen-coated 384-well microplates with clear bottom (Greiner cat #781956) using a Labcyte ECHO acoustic dispenser. The final starting concentration in the assay was either […]. DMSO (no compound) and pritelivir were included on each microplate as negative and positive controls, respectively.
ARPE-19 cells (ATCC cat #CRL-2302) were maintained DMEM/F-12 Glutamax medium (Thermo Fisher Scientific cat #10565018) supplemented with 10% FBS (Corning cat #35-011-CV) and 1% Penicillin-Streptomycin (cat #30-002-CI). Prior to confluence, cells were transferred to a centrifuge tube and spun for 5 minutes at 1000 rpm. Cells were resuspended in assay medium (DMEM/F-12 Glutamax, 2% FBS, 1% Penicillin-Streptomycin) and counted. Cell density was adjusted to 150,000 cells/ml and infected with HSV-2 virus (MS strain, ATCC cat #VR-540) at a MOI of 0.06 in a 50 ml conical tube for 1 hour under constant rocking. Cells were then spun for 5 minutes at 1000 rpm and the media replaced with assay medium containing either 2% FBS or 10% human serum (EMD Millipore cat #S1-100ML). 50 μl of the infection suspension were added into microplate wells that were pre-spotted with compounds (7,500 cells per well). Plates were incubated for 16 hours at 37° C.
Cell culture medium was aspirated using a Biomek Fx and 50 μl of a paraformaldehyde solution (Electron Microscopy Sciences cat #15712-5) diluted to 4% in DPBS (Corning cat #21-031-CM) were added per well. After a 30-minute incubation at room temperature, plates were washed 4 times with 100 μl/well of PBS using a Biotek plate washer. A 1:500 solution of primary antibody (anti-HSV gD, Virusys cat #P1103) was prepared in permeabilization buffer (Invitrogen cat #00-8333-56) and 50 μl were added into wells. After a 1-hour incubation at room temperature, 50 μl of a 1:1000 solution of secondary antibody (Alexa Fluor 488 goat anti-mouse, Thermo Fisher Scientific cat #A11001) and DAPI (Thermo Fisher Scientific cat #62248) in permeabilization buffer were added into wells and plates were incubated in the dark at room temperature for 1 hour. Plates were washed 4 times again and 50 μl of DPBS were added to all wells prior to sealing the plates with a black adhesive seal. Fluorescence was measured on a Cellomics plate reader.
Data analysis was carried out using the Thermo Scientific HCS Studio software. Briefly, cells were identified using the DAPI nuclear stain and thresholds were set to filter cells out based on shape and size. A second threshold based on green fluorescence intensity (detection of HSV-2 gD) was set to identify HSV-2 infected cells. Data was reported as the average fluorescence intensity of HSV-2 infected cells. EC50 values were defined as the compound concentration that caused a 50% decrease in the average fluorescence intensity and was calculated using a sigmoidal dose-response model to generate curve fits.

The mark [1] stands for this setting: Human alphaherpesvirus 2, HSV-2 (MS strain, MOI 0.06) infected ARPE-19 cells, assay medium containing 2% FBS, 16 hours, read-out: EC50-HSV2-FBS.
Where [2] appears, read: Human alphaherpesvirus 2, HSV-2 (MS strain, MOI 0.06) infected ARPE-19 cells, assay medium containing 10% human serum, 16 hours, read-out: EC50-HSV2-10% Human Serum.

The text below walks through data of patent publication US20250171413A1, “ANTIVIRAL INDOLINYL COMPOUNDS AND USES THEREOF” (Gilead Sciences, Inc., priority 2023, published 2025).

SMILES strings stand for the structures. pEC50: −log10 of the molar value. Where two headings read alike, the source gives them in different places.

The pEC50 is the negative decadic logarithm of the EC50, by convention in mol/L.

With `CC[S@](=N)(=O)c1cc2c(cc1F)CCN2C(=O)[C@H]1Cc2cc(-c3ccccn3)ccc2O1` [Example 5, (S)-ethyl(5-fluoro-1-((R)-5-(pyridin-2-yl)-2,3-dihydrobenzofuran-2-carbonyl)indolin-6-yl)(imino)-λ^6-sulfanone], the pEC50 is 6.75 under setting [1] and 6.32 under setting [2].
With `COCCS(=N)(=O)c1cc2c(cc1F)CCN2C(=O)[C@@H]1Cc2ccc(-c3ccccn3)cc2C1` (stereo partly drawn) [Example 13, (5-fluoro-1-((R)-5-(pyridin-2-yl)-2,3-dihydro-1H-indene-2-carbonyl)indolin-6-yl)(imino)(2-methoxyethyl)-16-sulfanone], the negative-log EC50 (pEC50) under setting [1] was 7.51 and the pEC50 under setting [2] was 7.26.
The matching figures for `N=[S@](=O)(c1cc2c(cc1F)CCN2C(=O)[C@@H]1Cc2ccc(-c3ccccn3)cc2C1)C1CC1` [Example 20, (R)-cyclopropyl(5-fluoro-1-((R)-5-(pyridin-2-yl)-2,3-dihydro-1H-indene-2-carbonyl)indolin-6-yl)(imino)-λ^6-sulfanone]: 7.48 and 6.61.
Turning to `CN=S(C)(=O)c1cc2c(cc1F)CCN2C(=O)[C@@H]1Cc2ccc(-c3ccccn3)cc2C1` (stereo partly drawn) [Example 22, (5-fluoro-1-((R)-5-(pyridin-2-yl)-2,3-dihydro-1H-indene-2-carbonyl)indolin-6-yl)(methyl)(methylimino)-l6-sulfanone], the pEC50 is, setting by setting: under setting [1], 6.68; under setting [2], 6.13.
Regarding `CCNS(=O)(=O)c1cc2c(cc1F)CCN2C(=O)[C@@H]1Cc2ccc(-c3ccccn3)cc2C1` [Example 30, (R)—N-ethyl-5-fluoro-1-(5-(pyridin-2-yl)-2,3-dihydro-1H-indene-2-carbonyl)indoline-6-sulfonamide], the pEC50 was 8.30 under setting [1] and 6.52 under setting [2].
As for `COCC[S@@](=N)(=O)c1cc2c(cc1F)CCN2C(=O)[C@H]1Cc2cc(-c3ccccn3)ccc2O1` [Example 17, (R)-(5-fluoro-1-((R)-5-(pyridin-2-yl)-2,3-dihydrobenzofuran-2-carbonyl)indolin-6-yl)(imino)(2-methoxyethyl)-λ^6-sulfanone], the pEC50 under setting [1] is 7.41 and the negative logarithm of the EC50 (pEC50) under setting [2] was 7.23.
For the molecule `CC[S@@](=N)(=O)c1cc2c(cc1F)C[C@@H](C)N2C(=O)[C@@H]1Cc2ccc(-c3ccccn3)cc2C1` [Example 26, (R)-ethyl((R)-5-fluoro-2-methyl-1-((R)-5-(pyridin-2-yl)-2,3-dihydro-1H-indene-2-carbonyl)indolin-6-yl)(imino)-λ^6-sulfanone], the negative-log EC50 (pEC50) was 7.52 under setting [1] and 7.04 under setting [2].
Taken in the same sequence, the figures for `CCNS(=O)(=O)c1cc2c(cc1F)CCN2C(=O)[C@H]1Cc2cc(-c3ccccn3)ccc2O1` [Example 31, (R)—N-ethyl-5-fluoro-1-(5-(pyridin-2-yl)-2,3-dihydrobenzofuran-2-carbonyl)indoline-6-sulfonamide] were 8.00 and 6.24.
Take `CCCC(=O)NS(=O)(=O)c1cc2c(cc1F)C[C@@H](C)N2C(=O)[C@@H]1Cc2ccc(-c3ccccn3)cc2C1` [Example 32, N—(((R)-5-fluoro-2-methyl-1-((R)-5-(pyridin-2-yl)-2,3-dihydro-1H-indene-2-carbonyl)indolin-6-yl)sulfonyl)butyramide]: the pEC50 runs as follows: under setting [1], 6.64; under setting [2], 5.62.
Taken in the same sequence, the figures for `CCC[S@](=N)(=O)c1cc2c(cc1F)CCN2C(=O)[C@H]1Cc2cc(-c3ccccn3)ccc2O1` [Example 11, (S)-(5-fluoro-1-((R)-5-(pyridin-2-yl)-2,3-dihydrobenzofuran-2-carbonyl)indolin-6-yl)(imino)(propyl)-λ^6-sulfanone] were 6.91 and 6.39.
Turning to `CC[S@@](=N)(=O)c1cc2c(cc1F)CCN2C(=O)[C@H]1Cc2cc(-c3ccccn3)ccc2O1` [Example 6, (R)-ethyl(5-fluoro-1-((R)-5-(pyridin-2-yl)-2,3-dihydrobenzofuran-2-carbonyl)indolin-6-yl)(imino)-λ^6-sulfanone], the pEC50 runs as follows: under setting [1], 7.40; under setting [2], 7.09.
The matching figures for `CN=[S@](C)(=O)c1cc2c(cc1F)CCN2C(=O)[C@@H]1Cc2ccc(-c3ccccn3)cc2C1` [Example 23, (R)-(5-fluoro-1-((R)-5-(pyridin-2-yl)-2,3-dihydro-1H-indene-2-carbonyl)indolin-6-yl)(methyl)(methylimino)-λ^6-sulfanone]: 6.81 and 6.28.
With `CC[S@@](=N)(=O)c1cc2c(cc1F)CCN2C(=O)[C@@H]1Cc2ccc(-c3ccccn3)cc2C1` [Example 2, (R)-ethyl(5-fluoro-1-((R)-5-(pyridin-2-yl)-2,3-dihydro-1H-indene-2-carbonyl)indolin-6-yl)(imino)-λ^6-sulfanone], the negative logarithm of the EC50 (pEC50) under setting [1] is 7.74 and the pEC50 under setting [2] was 7.15.
In the case of `CCC[S@](=N)(=O)c1cc2c(cc1F)CCN2C(=O)[C@@H]1Cc2ccc(-c3ccccn3)cc2C1` [Example 9, (S)-(5-fluoro-1-((R)-5-(pyridin-2-yl)-2,3-dihydro-1H-indene-2-carbonyl)indolin-6-yl)(imino)(propyl)-λ^6-sulfanone], the pEC50 is 7.28 under setting [1] and 6.66 under setting [2].
Taken in the same sequence, the figures for `CCC[S@@](=N)(=O)c1cc2c(cc1F)CCN2C(=O)[C@@H]1Cc2ccc(-c3ccccn3)cc2C1` [Example 8, (R)-(5-fluoro-1-((R)-5-(pyridin-2-yl)-2,3-dihydro-1H-indene-2-carbonyl)indolin-6-yl)(imino)(propyl)-λ^6-sulfanone] were 7.80 and 7.11.
The matching figures for `N=[S@@](=O)(c1cc2c(cc1F)CCN2C(=O)[C@@H]1Cc2ccc(-c3ccccn3)cc2C1)C1CC1` [Example 21, (S)-cyclopropyl(5-fluoro-1-((R)-5-(pyridin-2-yl)-2,3-dihydro-1H-indene-2-carbonyl)indolin-6-yl)(imino)-λ^6-sulfanone]: 7.01 and 6.02.
Consider `Cc1nc(N(C)C(=O)Cc2ccc(-c3ccccn3)cc2)sc1S(N)(=O)=O` [pritelivir, reference compound], for which, where the note is “Human alphaherpesvirus 2, ARPE-19, read-out: EC50 in HSV-2 Cellomics assay”, the negative logarithm of the EC50 (pEC50) was 6.82.
Regarding `CC[S@](=N)(=O)c1cc2c(cc1F)C[C@@H](C)N2C(=O)[C@@H]1Cc2ccc(-c3ccccn3)cc2C1` [Example 27, (S)-ethyl((R)-5-fluoro-2-methyl-1-((R)-5-(pyridin-2-yl)-2,3-dihydro-1H-indene-2-carbonyl)indolin-6-yl)(imino)-λ^6-sulfanone], the pEC50 is 7.26 under setting [1] and 6.95 under setting [2].
The matching figures for `CCS(=N)(=O)c1cc2c(cc1F)CC(C)N2C(=O)[C@@H]1Cc2ccc(-c3ccccn3)cc2C1` (stereo partly drawn) [Example 25, ethyl(5-fluoro-2-methyl-1-((R)-5-(pyridin-2-yl)-2,3-dihydro-1H-indene-2-carbonyl)indolin-6-yl)(imino)-λ^6-sulfanone]: 7.14 and 6.69.
As to `COCC[S@](=N)(=O)c1cc2c(cc1F)CCN2C(=O)[C@H]1Cc2cc(-c3ccccn3)ccc2O1` [Example 18, (S)-(5-fluoro-1-((R)-5-(pyridin-2-yl)-2,3-dihydrobenzofuran-2-carbonyl)indolin-6-yl)(imino)(2-methoxyethyl)-λ^6-sulfanone], the pEC50 runs as follows: under setting [1], 7.04; under setting [2], 6.68.
For `CC[S@](=N)(=O)c1cc2c(cc1F)CCN2C(=O)[C@@H]1Cc2ccc(-c3ccccn3)cc2C1` [Example 3, (S)-ethyl(5-fluoro-1-((R)-5-(pyridin-2-yl)-2,3-dihydro-1H-indene-2-carbonyl)indolin-6-yl)(imino)-λ^6-sulfanone], the negative logarithm of the EC50 (pEC50) reads like this: under setting [1], 7.14; under setting [2], 6.59.
